One data set concerns male Wistar rats. The data set is described as follows: Hepatic levels of triacylglycerol in rats fed fatty acid analogues (Example 17). It is filed as in vivo, rat. The note with it: no prefeeding. From the text:
Even an increased hepatic level of triacylglycerol may be relieved by TTA. Feeding rats with an inhibitor of fatty acid oxidation will increase the level of hepatic triacylglycerol resulting in fatty liver. Tetradecyl-4-thia propionic acid (TTP) is a fatty acid analogue with a sulphur atom in the 4 position. This analogue inhibits the β-oxidation of fatty acids due to the formation of a mitochondrial inhibitor. Feeding rats with this analogue results in the formation of fatty. However, if the rats are fed with a combination of TTA and TTP, the formation of fatty liver is avoided (Table 8). This provides evidence that TTA may be used for the treatment of conditions with an increased hepatic level of triacylglycerol. Male Wistar rats had free access to water and rat maintenance chow. They were fed palmitic acid or fatty acid analogues suspended in 0.5% CMC for 6 days. In some experiments TTA or TTP were fed for 3 days before feeding both for 6 days. At the end of the experiment the rats were fasted overnight, killed, the liver removed and homogenized. Triacylglycerol was measured in the homogenate.

For the next data set, the system named is Wistar rats. Description: Lipid lowering effect in normal Wistar rats (Example 4). The following applies: gavage once daily for 7 days. It is filed as in vivo, rat.
The test system of data set [1] is rat liver mitochondrial β-oxidation. The data set is described as follows: Mitochondrial β-oxidation in rat liver, fatty acid analogues with S in different positions (Example 18). It is filed as in vivo. The note with it: [1-14C]-palmitoyl-L-carnitine as substrate. As for the experimental part:
Freshly isolated livers from individual old Zucker rats, were homogenised in ice-cold sucrose buffer (0.25 M sucrose, 10 mM HEPES (pH 7.4) and 2 mM EDTA). Post-nuclear and mitochondrial fractions were prepared using preparative differential centrifugation according to DeDuve et al. (De Duve, C., et al., Biochem. J., 60, 604-617 1955.) Modifications, purity and yield were as described earlier (Garras, A., et al., Biochim. Biophys. Acta, 1255, 154-160 1995.). Acid soluble products were measured in post-nuclear and mitochondrial enriched fractions, using [1-^14C]-palmitoyl-CoA and [1-^14C]-palmitoyl-L-carnitine (Radiochemical Centre, Amersham, England) as substrates as described earlier (Willumsen, N., et al., J. Lipid Res., 34, 13-22 1993. Carnitine palmitoyltransferase-I and -II activities were measured in the post-nuclear and mitochondrial fractions essentially as described by Bremer (Bremer, J., Biochim. Biophys. Acta, 665, 628-631 1981.) and 3-hydroxy-3-methylglutharyl-CoA synthase was measured according to Clinkenbeard et al. (Clinkenbeard, K. D., et al., J. Biol. Chem, 250, 3108-3116 1975.) in the mitochondrial fractions.
The mitochondrial β-oxidation is measured as in example 16 with the use of [1-^14C]-palmitoyl-L-carnitine as substrates.

The next data set concerns Salmonella typhimurium. The data set is described as follows: Test for mutagenic activity in Salmonella typhimurium strains. It is filed as cell-based. The following applies: 3-1000 mg/plate (TTA) 2-5000 mg/plate (TSA). The text has this:
(§1) Tests for mutagenic activity have been performed by Covance Laboratories Limited, England. […] Furthermore, TTA was not mutagenic when tested in mouse lymphoma cells […] L5178Y.

A further data set relates to Escherichia coli. The data set is described as follows: Test for mutagenic activity in Escherichia coli strains. It is filed as cell-based. The following applies: 3-1000 mg/plate (TTA) 2-5000 mg/plate (TSA).
Source text: as §1

The test system of data set [2] is chinese hamster ovary cells. Description: Chromosomal aberrations in cultured chinese hamster ovary cells. The following applies: doses tested 12-140 mg/ml. It is filed as cell-based.
The mark [3] stands for this setting: dose 1500 mg/day/kg body weight.

Take `CCCCCCCCCCCCCCSCCC(=O)O`: the “Hepatic triacylglycerol TG (μmol/g)” value in the data set with male Wistar rats (TTP 300 mg/kg/day for 6 days) is 95,4 ± 14,7 μmol/g.

Take `CC/C=C\C/C=C\C/C=C\C/C=C\C/C=C\CCCC(=O)O` [EPA, eicosapentaenoic acid, reference compound]: in the data set on Wistar rats (setting [3]), the “Plasma lipids (% reduction of control) cholesterol” value is reported as 18 % reduction of control and the “Plasma lipids (% reduction of control) triglycerides” value is listed as 20 % reduction of control.

Turning to `CCCCCCCCCCCCCCCC(=O)O` [Palm, palmitic acid], the “Hepatic triacylglycerol TG (μmol/g)” value with male Wistar rats (palmitic acid for 6 days) was 10,9 μmol/g. In addition, the “Mitochondrial β-oxidation activity (nmol/min/mg protein)” value in data set [1] was 0,47 ± 0,06 nmol/min/mg protein.

Take Tetradecylselenoacetic acid [TSA]: the “Induction of mutations in strains of Salmonella typhimurium” value with Salmonella typhimurium is given as “did not induce mutations”. Also, the “Induction of mutations in strains of Escherichia coli” value in the data set on Escherichia coli is given as “did not induce mutations”. Besides, in data set [2], the “Chromosomal aberrations in cultured chinese hamster ovary cells” value is given as “no aberrations were induced”. In the data set with Wistar rats (dose 15 mg/day/kg body weight), the “Plasma lipids (% reduction of control) cholesterol” value is given as 20 % reduction of control and the “Plasma lipids (% reduction of control) triglycerides” value was 25 % reduction of control.

The values are drawn from patent publication US6365628B1 (Thia Medica AS, priority 1998, dated 2002).
